One test has as its target Recombinant human IDO1 (Homo sapiens, UniProt P14902). Briefly: IDO1 Enzymatic Assay. The settings on record: recombinant human IDO1 40 nM, L-tryptophan 100 μM, 40 min room temperature, N′-formylkynurenine absorbance 321 nm; read-out: IDO1 biochemical activity*. On the procedure: (§1) The IDO1 biochemical inhibitory activity is determined by measuring the decrease in N′-formylkynurenine from tryptophan catalyzed by IDO1 enzyme. Recombinant human IDO1 (40 nM), L-tryptophan (100 μM), L-ascorbic acid (20 mM), methylene Blue (20 μM), catalase (0.2 mg/mL), and serial dilutions of the test compounds in a total volume of […] containing DMSO (with final DMSO concentration of 0.5%) and a pH 7.5 buffer containing potassium phosphate (50 mM) were added into each well in a 96-well plate. After incubation at room temperature for 40 min, the absorbance of the reaction mixture was read at 321 nm to measure the formation of N′-formylkynurenine by SpectraMax microplate reader. Percent inhibition of the test compounds was determined by measuring the decrease in N′-formylkynurenine as compared to the control of DMSO vehicle, which was calculated by formula of (WC−WT)/WC, where WC is the mean absorbance of the control well minus blank well; WT is the mean absorbance of the test well minus the blank well. Data was analyzed by GraphPad Prism 5 and the IC50 values were obtained by non-linear regression.
The IC50 values of IDO1 biochemical activity for the examples disclosed herein are listed in Table 2, A: ≤0.1 μM; B: >0.10 μM and ≤0.5 μM; C: >0.5 μM and ≤1.0 μM; and D: >1.0 μM.

In another test the target is Recombinant human TDO2 (Homo sapiens, UniProt P48775). Briefly: TDO2 Enzymatic Assay. It is filed as biochemical. The settings on record: recombinant human TDO2 200 nM, L-tryptophan 300 μM, 40 min room temperature, N′-formylkynurenine absorbance 321 nm; read-out: TDO2 bichemical activity*. As to the method: as §1, with “TDO2” for “IDO1”, “TDO2 (200” for “IDO1 (40”, “(300” for “(100”, “(WC-WT)/WC,” for “(WC−WT)/WC,”
Recombinant human TDO2, sequence (P48775 whole entry): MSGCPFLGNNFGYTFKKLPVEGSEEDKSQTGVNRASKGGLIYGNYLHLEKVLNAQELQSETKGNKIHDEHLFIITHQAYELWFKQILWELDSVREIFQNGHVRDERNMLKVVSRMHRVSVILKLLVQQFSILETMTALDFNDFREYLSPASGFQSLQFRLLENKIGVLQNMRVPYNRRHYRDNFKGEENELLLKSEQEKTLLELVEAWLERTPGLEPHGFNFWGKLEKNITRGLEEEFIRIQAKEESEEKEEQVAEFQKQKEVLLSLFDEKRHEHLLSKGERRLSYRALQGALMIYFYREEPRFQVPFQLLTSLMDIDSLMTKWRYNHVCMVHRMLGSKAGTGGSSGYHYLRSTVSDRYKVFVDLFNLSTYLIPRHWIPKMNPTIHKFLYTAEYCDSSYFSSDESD
The IC50 values of TDO2 biochemical activity for the examples disclosed herein are listed in Table 2, A: ≤0.1 μM; B: >0.10 μM and ≤0.5 μM; C: >0.5 μM and ≤1.0 μM; and D: >1.0 μM.

Test [1] has as its target T1, TDO2 in A172 cancer cells (Homo sapiens, UniProt P48775).
T1 construct: endogenous in cells; host or cells: A172 cancer cells
Briefly: TDO2 Cellular Assay (kynurenine production in A172 cancer cells). It is filed as cell-based. The settings on record: L-Trp 1 mM, 24 hours incubation, kynurenine at 490 nm. A digest of the protocol: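 Kynurenine output of A172 cells was read colorimetrically at 490 nm (Ehrlich reagent after TCA hydrolysis at 50 °C). Cells had 1 mM L-Trp plus compound at 0–25 μM in 0.25% DMSO for 24 h; IC50 values were fitted non-linearly from percent inhibition relative to vehicle.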

Test [2] deals with T2, IDO1 in Hela cancer cells (Homo sapiens, UniProt P14902).
T2 construct: endogenous in cells; host or cells: Hela cancer cells stimulated with human IFN-γ
T2 sequence (P14902 whole entry): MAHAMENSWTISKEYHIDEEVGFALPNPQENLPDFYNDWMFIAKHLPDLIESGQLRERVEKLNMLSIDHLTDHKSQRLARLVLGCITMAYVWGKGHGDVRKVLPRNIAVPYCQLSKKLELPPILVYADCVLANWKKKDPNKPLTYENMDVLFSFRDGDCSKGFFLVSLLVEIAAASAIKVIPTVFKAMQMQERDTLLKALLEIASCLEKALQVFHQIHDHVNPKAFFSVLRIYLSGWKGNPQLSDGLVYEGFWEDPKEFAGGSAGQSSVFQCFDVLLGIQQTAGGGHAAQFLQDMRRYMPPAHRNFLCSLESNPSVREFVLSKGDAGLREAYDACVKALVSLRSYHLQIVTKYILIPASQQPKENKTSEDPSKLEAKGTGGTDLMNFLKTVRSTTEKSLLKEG
The test is described as follows: IDO1 Cellular Assay (kynurenine production in IFN-γ stimulated Hela cancer cells). It is filed as cell-based. The settings on record: human IFN-γ 50 ng/mL, 48 hours incubation, kynurenine at 490 nm. The essentials: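 HeLa cells stimulated with 50 ng/mL IFN-γ (final) and treated 48 h with compound (0–25 μM final, 0.25% DMSO). Supernatant kynurenine measured after TCA hydrolysis and p-dimethylaminobenzaldehyde reaction at 490 nm; inhibition vs DMSO control, IC50 by non-linear regression.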

Where only a bound is given, the exact number is not on record here.

Drawing on patent publication US11548868B2, “Heterocyclic compounds, compositions comprising heterocyclic compound, and methods of use thereof” (JS INNOPHARM (SHANGHAI) LTD, priority 2017, dated 2023), this text covers IC50 for six compounds.

Recombinant human IDO1, sequence (P14902 whole entry): as above
T1 sequence (P48775 whole entry): as the sequence (P48775 whole entry) above

With `CC(=O)N1CC2CN(c3cc(Cl)cc4[nH]ncc34)CC2C1(C)C` (stereo not shown) [Example 18, 1-(5-(6-chloro-1H-indazol-4-yl)-1,1-dimethylhexahydropyrrolo[3,4-c]pyrrol-2(1H)-yl)ethanone], the figures for the IC50 (at Recombinant human IDO1; at Recombinant human TDO2; in test [1]) were 0.5 to 1 µM, at most 0.1 µM and at most 0.5 µM, respectively.

With `O[C@@]1(c2cc(Cl)cc3[nH]ncc23)C[C@H]2C[C@H]2C1` [Example 25, (1R,3r,5S)-3-(6-chloro-1H-indazol-4-yl)bicyclo[3.1.0]hexan-3-ol], the IC50 is 0.5 to 1 µM on Recombinant human IDO1, at most 0.1 µM at Recombinant human TDO2, 1 to 5 µM in test [2] and at most 0.5 µM in test [1].

Take `CC1(C)C2CN(c3cc(Cl)cc4[nH]ncc34)CC2CN1S(C)(=O)=O` (single isomer, unassigned) [Example 1a]: the results for the IC50 (on Recombinant human IDO1; on Recombinant human TDO2; in test [1]) were above 1 µM, at most 0.1 µM and 0.5 to 1 µM, respectively.

Take `CC(=O)N1C[C@@H]2C[C@@](O)(c3cc(Cl)cc4[nH]ncc34)C[C@@H]2C1` [Example 22, 1-((3aR,5r,6aS)-5-(6-chloro-1H-indazol-4-yl)-5-hydroxyhexahydrocyclopenta[c]pyrrol-2(1H)-yl)ethanone]: the IC50 on Recombinant human IDO1 was above 1 µM; on Recombinant human TDO2, at most 0.1 µM; in test [2] it was above 5 µM; in test [1], at most 0.5 µM.

As for `CC1(C)C2CN(c3cc(Cl)cc4[nH]ncc34)CC2CN1S(C)(=O)=O` (single isomer, unassigned) [Example 1b], the IC50 was 0.1 to 0.5 µM at Recombinant human IDO1, at most 0.1 µM on Recombinant human TDO2, above 5 µM in test [2] and at most 0.5 µM in test [1].

For `CS(=O)(=O)N1C[C@@H]2C[C@@](O)(c3cc(Cl)cc4[nH]ncc34)C[C@@H]2C1` [Example 2, (3aR,5r,6aS)-5-(6-chloro-1H-indazol-4-yl)-2-(methylsulfonyl)octahydrocyclopenta[c]pyrrol-5-ol], the IC50 at Recombinant human IDO1 was 0.1 to 0.5 µM; on Recombinant human TDO2 it was at most 0.1 µM; in test [2], 0.5 to 1 µM; in test [1] it was at most 0.5 µM.
